Values quoted from earlier work in article PMC7904743, “WIDOCK: a reactive docking protocol for virtual screening of covalent inhibitors” (Journal of Computer-Aided Molecular Design, 2021).
Read-outs that look alike come from different tables or passages of the source.

Assays:
NUDT7 = details: protein labeling at 200 μM; experimental actives if % labeling higher than 50%; cited from earlier work
OTUB2 = details: experimental actives if % labeling higher than 50%, cited from earlier work
[1] = thiol reactivity, cited from earlier work
[2] = natural log of average kinetic rate constant
[3] = natural log of average rate constant
[4] = natural log of average rate constant k
[5] = natural logarithm of average rate constant

Q: Which NUDT7 % labeling (NUDT7) does the source give for `O=C(CCl)Nc1ccc2[nH]c(=O)[nH]c2c1` [PCM-0102866, O=C(CCl)Nc1ccc2[nH]c(=O)[nH]c2c1] here?
A: The NUDT7 % labeling was 0%.

Q: What about the OTUB2 % labeling (OTUB2; OTUB2 protein labeling) of the same compound?
A: The OTUB2 % labeling was 30%.

Q: And the “ln(avg k)” value [1, 2]?
A: The value was -15.702.

Q: And the “ln(avg k)” value [1, 3]?
A: The value was -15.702.

Q: Which results are given for `COc1ccc2c(c1)CCCN2C(=O)CCl` [PCM-0102325, COc1ccc2c(c1)CCCN2C(=O)CCl]?
A: NUDT7 % labeling (NUDT7): 12%; OTUB2 % labeling (OTUB2): 0%; ln(avg k) [1, 4]: -15.257; ln(avg k) [1, 5]: -15.257

Q: What does the source list for `CN(C(=O)CCl)c1ccccc1` [PCM-0102368, CN(C(=O)CCl)c1ccccc1]?
A: NUDT7 % labeling (NUDT7): 0%; OTUB2 % labeling (OTUB2): 0%; ln(avg k) [1, 4]: -15.648; ln(avg k) [1, 5]: -15.648

Q: For `COC(=O)c1cccc(NC(=O)CCl)c1` [PCM-0103048, COC(=O)c1cccc(NC(=O)CCl)c1], which NUDT7 % labeling (NUDT7) is on record?
A: The NUDT7 % labeling was 0%.

Q: And the OTUB2 % labeling (OTUB2; OTUB2 protein labeling)?
A: The OTUB2 % labeling was 87%.

Q: And the “ln(avg k)” value [1, 2]?
A: Its value is -15.795.

Q: What about the “ln(avg k)” value [1, 3] of the same compound?
A: Its value is -15.795.

Q: What does the source list for `O=C(CCl)NNC(=O)c1ccccc1Cl` [PCM-0102954, O=C(CCl)NNC(=O)c1ccccc1Cl]?
A: NUDT7 % labeling (NUDT7): 0%; OTUB2 % labeling (OTUB2; OTUB2 protein labeling): 80%; ln(avg k) [1, 2]: -17.060; ln(avg k) [1, 3]: -17.060

Q: For `COCC(=O)NNC(=O)CCl` [PCM-0103070, COCC(=O)NNC(=O)CCl], which NUDT7 % labeling (NUDT7) is on record?
A: Its NUDT7 % labeling is 0%.

Q: And the OTUB2 % labeling (OTUB2; OTUB2 protein labeling)?
A: Its OTUB2 % labeling is 0%.

Q: What about the “ln(avg k)” value [1, 2] of the same compound?
A: Its value is -17.475.

Q: What about the “ln(avg k)” value [1, 3] of the same compound?
A: Its value is -17.475.

Q: Which NUDT7 % labeling (NUDT7) does the source give for `CC(C)(C)C(=O)NNC(=O)CCl` [PCM-0102855, CC(C)(C)C(=O)NNC(=O)CCl] here?
A: Its NUDT7 % labeling is 7%.

Q: What about the OTUB2 % labeling (OTUB2; OTUB2 protein labeling) of the same compound?
A: The OTUB2 % labeling was 0%.

Q: What about the “ln(avg k)” value [1, 2] of the same compound?
A: The value was -17.593.

Q: And the “ln(avg k)” value [1, 3]?
A: The value was -17.593.

Q: For `CC(=O)N1CCC(NC(=O)CCl)CC1` [PCM-0102932, CC(=O)N1CCC(NC(=O)CCl)CC1], which NUDT7 % labeling (NUDT7) is on record?
A: The NUDT7 % labeling was 0%.

Q: And the OTUB2 % labeling (OTUB2; OTUB2 protein labeling)?
A: The OTUB2 % labeling was 7%.

Q: What about the “ln(avg k)” value [1, 2] of the same compound?
A: Its value is -16.417.

Q: What about the “ln(avg k)” value [1, 3] of the same compound?
A: Its value is -16.417.

Q: For `CN(Cc1cc(Br)cs1)C(=O)CCl` [PCM-0103081, CN(Cc1cc(Br)cs1)C(=O)CCl], which NUDT7 % labeling (NUDT7) is on record?
A: Its NUDT7 % labeling is 0%.

Q: What about the OTUB2 % labeling (OTUB2; OTUB2 protein labeling) of the same compound?
A: Its OTUB2 % labeling is 0%.

Q: And the “ln(avg k)” value [1, 2]?
A: Its value is -15.601.

Q: And the “ln(avg k)” value [1, 3]?
A: The value was -15.601.

Q: Which NUDT7 % labeling (NUDT7) does the source give for `O=C(CCl)NCc1ccc(Cl)s1` [PCM-0103080, O=C(CCl)NCc1ccc(Cl)s1] here?
A: The NUDT7 % labeling was 0%.

Q: What about the OTUB2 % labeling (OTUB2; OTUB2 protein labeling) of the same compound?
A: Its OTUB2 % labeling is 79%.

Q: And the “ln(avg k)” value [1, 2]?
A: The value was -16.506.

Q: What about the “ln(avg k)” value [1, 3] of the same compound?
A: Its value is -16.506.

Q: What does the source list for `O=C(CCl)NC(=O)NCc1ccccc1` [PCM-0102122, O=C(CCl)NC(=O)NCc1ccccc1]?
A: NUDT7 % labeling (NUDT7): 0%; OTUB2 % labeling (OTUB2): 0%; ln(avg k) [1, 4]: -16.001; ln(avg k) [1, 5]: -16.001

Q: Which NUDT7 % labeling (NUDT7) does the source give for `O=C(CCl)Nc1cccc(C(F)(F)F)c1` [PCM-0102290, O=C(CCl)Nc1cccc(C(F)(F)F)c1] here?
A: The NUDT7 % labeling was 12%.

Q: What about the OTUB2 % labeling (OTUB2) of the same compound?
A: Its OTUB2 % labeling is 26%.

Q: And the “ln(avg k)” value [1, 4]?
A: Its value is -15.516.

Q: And the “ln(avg k)” value [1, 5]?
A: Its value is -15.516.

Q: Which NUDT7 % labeling (NUDT7) does the source give for `O=C(CCl)N1CCC(C(=O)N2CCCC2)CC1` [PCM-0102655, O=C(CCl)N1CCC(C(=O)N2CCCC2)CC1] here?
A: Its NUDT7 % labeling is 0%.

Q: And the OTUB2 % labeling (OTUB2)?
A: Its OTUB2 % labeling is 0%.

Q: And the “ln(avg k)” value [1, 4]?
A: The value was -15.795.

Q: And the “ln(avg k)” value [1, 5]?
A: The value was -15.795.

Q: For `O=C(CCl)Nc1ccc(Cl)cc1Cl` [PCM-0102914, O=C(CCl)Nc1ccc(Cl)cc1Cl], which NUDT7 % labeling (NUDT7) is on record?
A: Its NUDT7 % labeling is 22%.

Q: And the OTUB2 % labeling (OTUB2; OTUB2 protein labeling)?
A: Its OTUB2 % labeling is 14%.

Q: And the “ln(avg k)” value [1, 2]?
A: Its value is -16.384.

Q: What about the “ln(avg k)” value [1, 3] of the same compound?
A: Its value is -16.384.

Q: With `COC(=O)C1CN(C(=O)CCl)c2ccccc2O1` (stereo not drawn) [PCM-0102880, COC(=O)C1CN(C(=O)CCl)c2ccccc2O1] as the compound, how does the NUDT7 % labeling (NUDT7) read?
A: The NUDT7 % labeling was 0%.

Q: And the OTUB2 % labeling (OTUB2; OTUB2 protein labeling)?
A: The OTUB2 % labeling was 11%.

Q: What about the “ln(avg k)” value [1, 2] of the same compound?
A: The value was -17.563.

Q: What about the “ln(avg k)” value [1, 3] of the same compound?
A: The value was -17.563.

Q: For `Cc1cc(N2CCN(C(=O)CCl)CC2)nc(C(C)C)n1` [PCM-0102638, Cc1cc(N2CCN(C(=O)CCl)CC2)nc(C(C)C)n1], which NUDT7 % labeling (NUDT7) is on record?
A: The NUDT7 % labeling was 0%.

Q: What about the OTUB2 % labeling (OTUB2) of the same compound?
A: The OTUB2 % labeling was 0%.

Q: And the “ln(avg k)” value [1, 4]?
A: The value was -16.816.

Q: And the “ln(avg k)” value [1, 5]?
A: Its value is -16.816.

Q: With `O=C(CCl)NC1CCOCC1` [PCM-0103045, O=C(CCl)NC1CCOCC1] as the compound, how does the NUDT7 % labeling (NUDT7) read?
A: The NUDT7 % labeling was 0%.

Q: What about the OTUB2 % labeling (OTUB2; OTUB2 protein labeling) of the same compound?
A: Its OTUB2 % labeling is 0%.

Q: And the “ln(avg k)” value [1, 2]?
A: The value was -16.016.

Q: And the “ln(avg k)” value [1, 3]?
A: The value was -16.016.

Q: With `Cc1cccc(CNC(=O)CCl)c1` [PCM-0102821, Cc1cccc(CNC(=O)CCl)c1] as the compound, how does the NUDT7 % labeling (NUDT7) read?
A: The NUDT7 % labeling was 0%.

Q: What about the OTUB2 % labeling (OTUB2; OTUB2 protein labeling) of the same compound?
A: Its OTUB2 % labeling is 86%.

Q: What about the “ln(avg k)” value [1, 2] of the same compound?
A: The value was -16.579.

Q: What about the “ln(avg k)” value [1, 3] of the same compound?
A: Its value is -16.579.
